According to patent US6358885B1, “Substituted phenylheterocyclic herbicides” (Mississippi State University, priority 1992, dated 2002):

Assays:
barnyardgrass [1] = experiment: Test D paddy water application plant response rating 0 to 100; assay type: in vivo, Echinochloa crus-galli; conditions: 0 to 100 scale, approx. 21 days
Source text: (§1) Plastic pots were partially filled with silt loam soil. The soil was then saturated with water. […] After planting, water levels were raised to 3 cm above the soil surface and maintained at this level throughout the test. Chemical treatments were formulated in a non-phytotoxic solvent and applied directly to the paddy water. Treated plants and controls were maintained in a greenhouse for approximately 21 days, after which all species were compared to controls and visually evaluated. […] A dash (-) response means no test result.

duck salad = experiment: as above; assay type: in vivo, Heteranthera limosa; conditions: 0 to 100 scale, approx. 21 days
Source text: as §1

arrowhead = experiment: as above; assay type: in vivo, Sagittaria spp.; conditions: 0 to 100 scale, approx. 21 days
Source text: as §1

Japonica rice [2] = experiment: as above; assay type: in vivo, Oryza sativa; conditions: 0 to 100 scale, approx. 21 days
Source text: as §1

umbrella sedge = experiment: as above; assay type: in vivo, Cyperus difformis; conditions: 0 to 100 scale, approx. 21 days
Source text: as §1

Japonica rice [3] = experiment: Test E paddy water application plant response rating 0 to 100; assay type: in vivo, oryza sativa; conditions: Flood, 0 to 100 scale, approx. 21 days
Source text: (§2) Plastic pots were partially filled with silt loam soil. […] At testing, the water level for all plantings was raised to 2 cm above the soil surface. Chemical treatments were formulated in a non-phytotoxic solvent and applied directly to the paddy water. Treated plants and controls were maintained in a greenhouse for approximately 21 days, after which all species were compared to controls and visually evaluated. […] A dash (-) response means no test result.

waterchestnut = experiment: Test D paddy water application plant response rating 0 to 100; assay type: in vivo, Eleocharis spp.; conditions: 0 to 100 scale, approx. 21 days
Source text: as §1

barnyardgrass [4] = experiment: Test E paddy water application plant response rating 0 to 100; assay type: in vivo, Echinochloa crus-galli; conditions: Flood, 0 to 100 scale, approx. 21 days
Source text: as §2

CC(C)N1C(=O)COc2cc(F)c(-c3nn4c(c3Cl)CCCC4)cc21 [Compound 31]
Barnyardgrass 2 plant response rating (barnyardgrass [1]; Rate 4 g/ha): 0
Barnyardgrass 2 plant response rating (barnyardgrass [1]; Rate 8 g/ha): 0
Barnyardgrass 2 plant response rating (barnyardgrass [1]; Rate 16 g/ha): 30
Barnyardgrass 2 plant response rating (barnyardgrass [1]; Rate 32 g/ha): 40
Barnyardgrass 2 plant response rating (barnyardgrass [1]; Rate 64 g/ha): 60
Duck salad plant response rating (duck salad; Rate 4 g/ha): 0
Duck salad plant response rating (duck salad; Rate 8 g/ha): 0
Duck salad plant response rating (duck salad; Rate 16 g/ha): 0
Duck salad plant response rating (duck salad; Rate 32 g/ha): 0
Duck salad plant response rating (duck salad; Rate 64 g/ha): 0
Arrowhead plant response rating (arrowhead; Rate 4 g/ha): 50
Arrowhead plant response rating (arrowhead; Rate 8 g/ha): 60
Arrowhead plant response rating (arrowhead; Rate 16 g/ha): 85
Arrowhead plant response rating (arrowhead; Rate 32 g/ha): 100
Arrowhead plant response rating (arrowhead; Rate 64 g/ha): 100
Japonica rice plant response rating (Japonica rice [2]; Rate 4 g/ha): 10
Japonica rice plant response rating (Japonica rice [2]; Rate 8 g/ha): 15
Japonica rice plant response rating (Japonica rice [2]; Rate 16 g/ha): 20
Japonica rice plant response rating (Japonica rice [2]; Rate 32 g/ha): 25
Japonica rice plant response rating (Japonica rice [2]; Rate 64 g/ha): 30
Umbrella sedge plant response rating (umbrella sedge; Rate 4 g/ha): 0
Umbrella sedge plant response rating (umbrella sedge; Rate 8 g/ha): 0
Umbrella sedge plant response rating (umbrella sedge; Rate 16 g/ha): 20
Umbrella sedge plant response rating (umbrella sedge; Rate 32 g/ha): 65
Umbrella sedge plant response rating (umbrella sedge; Rate 64 g/ha): 75

C#CCN1C(=O)COc2cc(F)c(-c3nn4c(c3Cl)CCCC4)cc21 [Compound 34]
Japonica 1 plant response rating (Japonica rice [3]; Rate 16 g/ha): 75
Japonica 2 plant response rating (Japonica rice [3]; Rate 16 g/ha): 25
Japonica 1 plant response rating (Japonica rice [3]; Rate 32 g/ha): 85
Japonica 2 plant response rating (Japonica rice [3]; Rate 32 g/ha): 30
Japonica 1 plant response rating (Japonica rice [3]; Rate 64 g/ha): 95
Japonica 2 plant response rating (Japonica rice [3]; Rate 64 g/ha): 45
Japonica 1 plant response rating (Japonica rice [3]; Rate 125 g/ha): 98
Japonica 2 plant response rating (Japonica rice [3]; Rate 125 g/ha): 60
Japonica 1 plant response rating (Japonica rice [3]; Rate 250 g/ha): 100
Japonica 2 plant response rating (Japonica rice [3]; Rate 250 g/ha): 95
Barnyardgrass 2 plant response rating (barnyardgrass [1]; Rate 4 g/ha): 0
Barnyardgrass 2 plant response rating (barnyardgrass [1]; Rate 8 g/ha): 10
Barnyardgrass 2 plant response rating (barnyardgrass [1]; Rate 16 g/ha): 20
Barnyardgrass 2 plant response rating (barnyardgrass [1]; Rate 32 g/ha): 30
Barnyardgrass 2 plant response rating (barnyardgrass [1]; Rate 64 g/ha): 50
Duck salad plant response rating (duck salad; Rate 4 g/ha): 0
Duck salad plant response rating (duck salad; Rate 8 g/ha): 0
Duck salad plant response rating (duck salad; Rate 16 g/ha): 0
Duck salad plant response rating (duck salad; Rate 32 g/ha): 0
Duck salad plant response rating (duck salad; Rate 64 g/ha): 60
Waterchestnut plant response rating (waterchestnut; Rate 4 g/ha): 20
Waterchestnut plant response rating (waterchestnut; Rate 8 g/ha): 20
Waterchestnut plant response rating (waterchestnut; Rate 32 g/ha): 20
Waterchestnut plant response rating (waterchestnut; Rate 64 g/ha): 20
Arrowhead plant response rating (arrowhead; Rate 4 g/ha): 85
Arrowhead plant response rating (arrowhead; Rate 8 g/ha): 90
Arrowhead plant response rating (arrowhead; Rate 16 g/ha): 90
Arrowhead plant response rating (arrowhead; Rate 32 g/ha): 100
Arrowhead plant response rating (arrowhead; Rate 64 g/ha): 100
Japonica rice plant response rating (Japonica rice [2]; Rate 4 g/ha): 20
Japonica rice plant response rating (Japonica rice [2]; Rate 8 g/ha): 30
Japonica rice plant response rating (Japonica rice [2]; Rate 16 g/ha): 55
Japonica rice plant response rating (Japonica rice [2]; Rate 32 g/ha): 40
Japonica rice plant response rating (Japonica rice [2]; Rate 64 g/ha): 50
Barnyardgrass 2 plant response rating (barnyardgrass [4]; Rate 16 g/ha): 85
Barnyardgrass 3 plant response rating (barnyardgrass [4]; Rate 16 g/ha): 35
Barnyardgrass 2 plant response rating (barnyardgrass [4]; Rate 32 g/ha): 90
Barnyardgrass 3 plant response rating (barnyardgrass [4]; Rate 32 g/ha): 45
Barnyardgrass 2 plant response rating (barnyardgrass [4]; Rate 64 g/ha): 95
Barnyardgrass 3 plant response rating (barnyardgrass [4]; Rate 64 g/ha): 45
Barnyardgrass 2 plant response rating (barnyardgrass [4]; Rate 125 g/ha): 100
Barnyardgrass 3 plant response rating (barnyardgrass [4]; Rate 125 g/ha): 50
Barnyardgrass 2 plant response rating (barnyardgrass [4]; Rate 250 g/ha): 100
Barnyardgrass 3 plant response rating (barnyardgrass [4]; Rate 250 g/ha): 95
Umbrella sedge plant response rating (umbrella sedge; Rate 4 g/ha): 0
Umbrella sedge plant response rating (umbrella sedge; Rate 8 g/ha): 20
Umbrella sedge plant response rating (umbrella sedge; Rate 16 g/ha): 50
Umbrella sedge plant response rating (umbrella sedge; Rate 32 g/ha): 70
Umbrella sedge plant response rating (umbrella sedge; Rate 64 g/ha): 80

C=C(Cl)COc1cc(-c2nn3c(c2Cl)CCCC3)c(F)cc1Cl [Compound 40]
Japonica 1 plant response rating (Japonica rice [3]; Rate 8 g/ha): 15
Japonica 2 plant response rating (Japonica rice [3]; Rate 8 g/ha): 10
Japonica 1 plant response rating (Japonica rice [3]; Rate 16 g/ha): 10
Japonica 2 plant response rating (Japonica rice [3]; Rate 16 g/ha): 15
Japonica 1 plant response rating (Japonica rice [3]; Rate 32 g/ha): 15
Japonica 2 plant response rating (Japonica rice [3]; Rate 32 g/ha): 20
Japonica 1 plant response rating (Japonica rice [3]; Rate 64 g/ha): 15
Japonica 2 plant response rating (Japonica rice [3]; Rate 64 g/ha): 15
Japonica 1 plant response rating (Japonica rice [3]; Rate 125 g/ha): 20
Japonica 2 plant response rating (Japonica rice [3]; Rate 125 g/ha): 20
Barnyardgrass 2 plant response rating (barnyardgrass [1]; Rate 4 g/ha): 20
Barnyardgrass 2 plant response rating (barnyardgrass [1]; Rate 8 g/ha): 65
Barnyardgrass 2 plant response rating (barnyardgrass [1]; Rate 16 g/ha): 70
Barnyardgrass 2 plant response rating (barnyardgrass [1]; Rate 32 g/ha): 100
Barnyardgrass 2 plant response rating (barnyardgrass [1]; Rate 64 g/ha): 100
Duck salad plant response rating (duck salad; Rate 4 g/ha): 0
Duck salad plant response rating (duck salad; Rate 8 g/ha): 0
Duck salad plant response rating (duck salad; Rate 16 g/ha): 0
Duck salad plant response rating (duck salad; Rate 32 g/ha): 0
Duck salad plant response rating (duck salad; Rate 64 g/ha): 45
Waterchestnut plant response rating (waterchestnut; Rate 4 g/ha): 20
Waterchestnut plant response rating (waterchestnut; Rate 8 g/ha): 20
Waterchestnut plant response rating (waterchestnut; Rate 16 g/ha): 30
Waterchestnut plant response rating (waterchestnut; Rate 32 g/ha): 30
Waterchestnut plant response rating (waterchestnut; Rate 64 g/ha): 60
Arrowhead plant response rating (arrowhead; Rate 4 g/ha): 0
Arrowhead plant response rating (arrowhead; Rate 8 g/ha): 0
Arrowhead plant response rating (arrowhead; Rate 16 g/ha): 0
Arrowhead plant response rating (arrowhead; Rate 32 g/ha): 0
Arrowhead plant response rating (arrowhead; Rate 64 g/ha): 0
Japonica rice plant response rating (Japonica rice [2]; Rate 4 g/ha): 10
Japonica rice plant response rating (Japonica rice [2]; Rate 8 g/ha): 10
Japonica rice plant response rating (Japonica rice [2]; Rate 16 g/ha): 15
Japonica rice plant response rating (Japonica rice [2]; Rate 32 g/ha): 20
Japonica rice plant response rating (Japonica rice [2]; Rate 64 g/ha): 30
Barnyardgrass 2 plant response rating (barnyardgrass [4]; Rate 8 g/ha): 15
Barnyardgrass 3 plant response rating (barnyardgrass [4]; Rate 8 g/ha): 25
Barnyardgrass 2 plant response rating (barnyardgrass [4]; Rate 16 g/ha): 25
Barnyardgrass 3 plant response rating (barnyardgrass [4]; Rate 16 g/ha): 20
Barnyardgrass 2 plant response rating (barnyardgrass [4]; Rate 32 g/ha): 45
Barnyardgrass 3 plant response rating (barnyardgrass [4]; Rate 32 g/ha): 35
Barnyardgrass 2 plant response rating (barnyardgrass [4]; Rate 64 g/ha): 60
Barnyardgrass 3 plant response rating (barnyardgrass [4]; Rate 64 g/ha): 40
Barnyardgrass 2 plant response rating (barnyardgrass [4]; Rate 125 g/ha): 85
Barnyardgrass 3 plant response rating (barnyardgrass [4]; Rate 125 g/ha): 50
Umbrella sedge plant response rating (umbrella sedge; Rate 4 g/ha): 0
Umbrella sedge plant response rating (umbrella sedge; Rate 8 g/ha): 0
Umbrella sedge plant response rating (umbrella sedge; Rate 16 g/ha): 15
Umbrella sedge plant response rating (umbrella sedge; Rate 32 g/ha): 30
Umbrella sedge plant response rating (umbrella sedge; Rate 64 g/ha): 80

C=CCN1C(=O)COc2cc(F)c(-c3nn4c(c3Br)CCCC4)cc21 [Compound 41]
Japonica 1 plant response rating (Japonica rice [3]; Rate 8 g/ha): 25
Japonica 2 plant response rating (Japonica rice [3]; Rate 8 g/ha): 15
Japonica 1 plant response rating (Japonica rice [3]; Rate 16 g/ha): 35
Japonica 2 plant response rating (Japonica rice [3]; Rate 16 g/ha): 20
Japonica 1 plant response rating (Japonica rice [3]; Rate 32 g/ha): 45
Japonica 2 plant response rating (Japonica rice [3]; Rate 32 g/ha): 30
Japonica 1 plant response rating (Japonica rice [3]; Rate 64 g/ha): 65
Japonica 2 plant response rating (Japonica rice [3]; Rate 64 g/ha): 45
Japonica 1 plant response rating (Japonica rice [3]; Rate 125 g/ha): 95
Japonica 2 plant response rating (Japonica rice [3]; Rate 125 g/ha): 55
Barnyardgrass 2 plant response rating (barnyardgrass [4]; Rate 8 g/ha): 25
Barnyardgrass 3 plant response rating (barnyardgrass [4]; Rate 8 g/ha): 20
Barnyardgrass 2 plant response rating (barnyardgrass [4]; Rate 16 g/ha): 30
Barnyardgrass 3 plant response rating (barnyardgrass [4]; Rate 16 g/ha): 25
Barnyardgrass 2 plant response rating (barnyardgrass [4]; Rate 32 g/ha): 55
Barnyardgrass 3 plant response rating (barnyardgrass [4]; Rate 32 g/ha): 35
Barnyardgrass 2 plant response rating (barnyardgrass [4]; Rate 64 g/ha): 65
Barnyardgrass 3 plant response rating (barnyardgrass [4]; Rate 64 g/ha): 45
Barnyardgrass 2 plant response rating (barnyardgrass [4]; Rate 125 g/ha): 98
Barnyardgrass 3 plant response rating (barnyardgrass [4]; Rate 125 g/ha): 55
